Measured values reported in patent US6916797B2, “α-arylethylpiperazine derivatives as neurokinin antagonists” (UCB, S.A., priority 2000, dated 2005).
pIC50: −log10 of the molar value.

Tests used:
[1] = system: isolated rat aorta contracted by 100 mM KCl; test: Effect of compound on isolated rat aorta contracted by 100 mM KCl; conditions: 10^−5 M; contraction by 100 mM KCl
Procedure: Rat thoracic aorta depolarized by 100 mM KCl develops a contraction induced by an influx of Ca^2+ into the smooth muscle cell. An inhibition of this contraction could predict a Ca^2+ antagonist activity.
The method was adapted from Polster P. et al., J. Pharmacol. Exp. Ther. (1990), 255, 593: rings of thoracic aorta were prepared from male Wistar rats (250-400 g) and mounted under an optimal resting tension of 2 g in 10 ml organ baths containing modified Krebs' solution (NaCl 112 mM, NaHCO3 25 mM, KCl 5 mM, MgSO4 1.2 mM, CaCl2 2.5 mM, KH2PO4 1 mM and glucose 11.5 mM, pH 7.4). The bathing solution was maintained at a temperature of 37° C. and gassed with 95% O2 and 5% CO2. Isometric contractions were measured with a force transducer connected to an amplifier. A computer system was used to control data acquisition and fluid circulation through electrovalves. Drugs were manually injected into the bath.
Each ring was allowed to equilibrate for 60 min in the modified Krebs' solution. […] After obtaining two reproducible control contractions, a 3rd contraction was induced and the test compound was added to the bathing medium for 2 hours. Only preparation in which the contractions were matched were used. Each tissue received only one concentration of the test compound. Appropriate control experiments were conducted in order to test the effect of the solvant.
To normalize data, the change in tension due to the drug was compared to the change of tension due to the solvant and expressed as percentage of the induced relaxation of the initial contraction. Raw data were processed by a computer system and the pD′2 value was calculated following the method of Van Rossum J. M. et al., Arch. Int. Pharmacodyn. Ther. (1963), 143, 299.

NK1 receptors = NK1 receptors (Homo sapiens, UniProt P25103); test: Binding of [4,5-3H-Leu10] substance P to human recombinant NK1 receptors expressed in CHO cell membranes; parameters: host or cells: CHO cells; conditions: pIC50 = -log IC50, concentration inhibiting by 50% the specific binding of [4,5-3H] substance P; tested as the free base/salt given in c1
NK1 receptors, sequence (P25103 whole entry): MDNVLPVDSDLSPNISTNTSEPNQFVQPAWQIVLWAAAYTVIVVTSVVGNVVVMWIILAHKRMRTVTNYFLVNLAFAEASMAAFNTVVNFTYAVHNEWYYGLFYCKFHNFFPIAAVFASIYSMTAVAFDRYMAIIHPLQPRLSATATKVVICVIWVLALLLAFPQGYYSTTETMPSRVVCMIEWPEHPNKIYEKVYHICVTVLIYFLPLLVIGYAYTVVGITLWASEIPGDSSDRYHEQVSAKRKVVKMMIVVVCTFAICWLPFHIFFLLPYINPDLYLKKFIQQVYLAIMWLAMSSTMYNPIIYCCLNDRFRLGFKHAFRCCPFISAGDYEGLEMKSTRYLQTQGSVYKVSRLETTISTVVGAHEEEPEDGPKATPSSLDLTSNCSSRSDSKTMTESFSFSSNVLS
Procedure: The following test was designed to assess the affinity of test substances for human recombinant NK1 receptors expressed in Chinese Hamster Ovarian (CHO) cells.
CHO cells expressing the human recombinant NK1 receptor are used. The cells were obtained from Euroscreen (Brussels, Belgium).
Cells expressing the human NK1 receptor are routinely cultured in 175 cm2 flasks containing 75 ml of medium F12 (Ham) enriched with 2 mmol/l L-glutamine, 100 IU/ml penicilline, 100 μg/ml streptomycine, 1% sodium pyruvate, 2.5 μg/ml fungizone amphotericin B, 400 μg/ml geneticin and supplemented with 10% foetal calf serum. […] When subcultured, the cells are seeded at a concentration of 50,000 cells/cm2.
Confluent cells are gently scraped and resuspended in 25 ml of phosphate buffered saline without calcium and magnesium. The cellular suspension is centrifuged at 1500×g for 3 min (4° C.). The cell pellet is homogenized in a 15 mmol/l Tris-HCl (pH 7.5) buffer, 2 mmol/l MgCl2, 0.3 mmol/l EDTA, 1 mmol/l EGTA. The crude membrane fraction is collected by two consecutive centrifugation steps at 40,000×g for 25 min (4° C.). The final pellet is resuspended in 20 mmol/l Tris-HCl (pH 7.4), 250 mmol/l sucrose buffer at a protein concentration ranging from 2 to 6 mg/ml and stored in liquid nitrogen. • 1.2.2. Test Design
The inhibition constant (Ki) is determined using increasing concentrations of the test substance. The concentration range usually encompasses 6 log units with variable steps (0.3 to 1 log). Assays are performed in mono- or duplicate.
Membranes are incubated at 25° C. for 60 min in 0.5 ml of a 50 mmol/l Tris-HCl buffer (pH 7.4) containing 2 mmol/l MgCl2, 100 μg/ml bacitracine, 0.1 to 0.4×10^−9 mol/l of [4,5^3H-Leu^10] substance P (specific activity>100 Ci/mmol) and increasing concentrations of the test substance. […] Membrane-bound and free radioligands are separated by rapid filtration through glass fiber filters (equivalent to Whatman GF/C or GF/B; VEL, Belgium) presoaked in 0.1% polyethyleneimine to reduce non specific binding. Samples and filters are rinsed by at least 6 ml of 50 mmol/l Tris-HCl (pH 7.4) buffer.
Initial values for the different variables may be provided by the experimenter.

[2] = system: verapamil binding site of the L-type calcium channel; test: Inhibition of [3H]D888 binding to the verapamil binding site of the L-type calcium channel (rat cerebral cortex membranes); conditions: 10 μmol/l of test substance
Procedure: 200-250 g male Sprague-Dawley rats are sacrificed by decapitation. Cerebral cortices are quickly dissected on ice and homogenized in a 20 mmol/l Tris-HCl (pH 7.4) buffer containing 250 mmol/l sucrose (buffer A). The homogenate is centrifuged at 30,000 g for 15 min at 4° C. The resulting crude membrane pellet is resuspended in a 50 mmol/l Tris-HCl (pH 7.4) buffer and incubated 15 min at 37° C. before being centrifuged at 30,000×g for 15 min at 4° C. After two more washes under the same conditions, the final pellet is resuspended in buffer A at a protein concentration ranging from 15 to 25 mg/ml and stored in liquid nitrogen.
Binding experiments are essentially performed according to Reynolds J. et al., J. Pharmacol. Exp. Ther. (1986), 237, 731-738. (1986) with slight modifications.
Membranes (120-175 μg/assay) are incubated at 25° C. for 60 min in 0.5 ml of a 50 mmol/l Tris-HCl buffer (pH 7.4) containing 2 mmol/l MgCl2, 0.2 to 0.4×10-9 mol/l of [^3H]D888 (85 Ci/mmol; Amersham, Belgium) and 10 μmol/l of the test substance. The non specific binding (NSB) is defined as the residual binding observed in the presence 10 μM verapamil. Membrane-bound and -free radioligands are separated by rapid filtration through glass fiber filters (equivalent to Whatman GF/C or GF/B; VEL, Belgium) presoaked in 0.1% polyethyleneimine to reduce non specific binding. Samples and filters are rinsed by at least 6 ml of 50 mmol/l Tris-HCl (pH 7.4) buffer. […] The radioactivity trapped onto the filters is counted by liquid scintillation in a β-counter.
The inhibition of the radioligand specific binding is calculated as follows: [formula] • where BI and Bo represent the binding observed in the presence and absence of the test substance respectively; and • BNS is the non specific binding.
Data analysis is performed by a computerized non linear curve fitting method using a set of equations describing several binding models assuming competitive interactions between ligands (Weiland G. A. and P. B. Molinoff Life Science (1981), 29, 313-330; Molinoff P. et al. (1981) Life Sci., 29, 427-443).

Compound | Result: effect of compound on isolated rat aorta contracted by 100 mM KCl [1] | pIC50 (NK1 receptors) | % inhibition of [3H]D888 binding to the verapamil binding site of the L-type calcium channel [2]
O=S(=O)(O)CCCN1CCN(C(COCc2cc(C(F)(F)F)cc(C(F)(F)F)c2)c2ccccc2)CC1 (racemic) [Compound 160] | inactive à 10^−5 M | 7.50 | 0 (0: inhibition < 20%)
O=C(O)CN1CCN(C(COCc2cc(C(F)(F)F)cc(C(F)(F)F)c2)c2ccccc2)CC1 (racemic) [Compound 229, {4-[2-(3,5-Bis-trifluoromethyl-benzyloxy)-1-phenyl-ethyl]-piperazin-1-yl}-acetic acid] | inactive à 10^−5 M | 7.10 | 0 (0: inhibition < 20%)
O=C(O)CCCN1CCN(C(COCc2cc(C(F)(F)F)cc(C(F)(F)F)c2)c2ccccc2)CC1 (racemic) [Compound 232] | inactive à 10^−5 M | 7.30 | + (+: inhibition comprised between 20 and 50%)
O=C(O)CCCCN1CCN(C(COCc2cc(C(F)(F)F)cc(C(F)(F)F)c2)c2ccccc2)CC1 (racemic) [Compound 233, 5-{4-[2-(3,5-Bis-trifluoromethyl-benzyloxy)-1-phenyl-ethyl]-piperazin-1-yl}-pentanoic acid] | inactive à 10^−5 M | 7.50 | 0 (0: inhibition < 20%)
O=C(O)COCCN1CCN(C(COCc2cc(C(F)(F)F)cc(C(F)(F)F)c2)c2ccccc2)CC1 (racemic) [Compound 235, (2-{4-[2-(3,5-Bis-trifluoromethyl-benzyloxy)-1-phenyl-ethyl]-piperazin-1-yl}-ethoxy)-acetic acid] | inactive à 10^−5 M | 7.20 | 0 (0: inhibition < 20%)
O=C(O)CN1CCN([C@H](COCc2cc(C(F)(F)F)cc(C(F)(F)F)c2)c2ccccc2)CC1 [Compound 230] | inactive à 10^−5 M | 7.30 | 0 (0: inhibition < 20%)
O=C(O)COCCN1CCN([C@H](COCc2cc(C(F)(F)F)cc(C(F)(F)F)c2)c2ccccc2)CC1 [Compound 236] | inactive à 10^−5 M | 7.10 | 0 (0: inhibition < 20%)
O=C(O)c1ccc(CN2CCN([C@H](COCc3cc(C(F)(F)F)cc(C(F)(F)F)c3)c3ccccc3)CC2)cc1 [Compound 243] | inactive à 10^−5 M | 7.20 | 0 (0: inhibition < 20%)
C[C@@H](OC[C@@H](c1ccccc1)N1CCN(CCOCC(=O)O)CC1)c1cc(C(F)(F)F)cc(C(F)(F)F)c1 [Compound 281] | inactive à 10^−5 M | – | + (+: inhibition comprised between 20 and 50%)
CC(C)COC(=O)COCCN1CCN(C(COCc2cc(C(F)(F)F)cc(C(F)(F)F)c2)c2ccccc2)CC1 (centres unmarked) [Compound 287, (2-{4-[2-(3,5-Bis-trifluoromethyl-benzyloxy)-1-phenyl-ethyl]-piperazin-1-yl}-ethoxy)-acetic acid isobutyl ester] | inactive à 10^−5 M | 7.50 | + (+: inhibition comprised between 20 and 50%)
O=c1[nH]nc(CN2CCN(C(COCc3cc(C(F)(F)F)cc(C(F)(F)F)c3)c3ccccc3)CC2)[nH]1 (centres unmarked) [Compound 295, 5-{4-[2-(3,5-Bis-trifluoromethyl-benzyloxy)-1-phenyl-ethyl]-piperazin-1-ylmethyl}-2,4-dihydro-[1,2,4]triazol-3-one] | inactive à 10^−5 M | 7.20 | − + (+: inhibition comprised between 20 and 50%)
FC(F)(F)c1cc(COCC(c2ccccc2)N2CCN(CCCCc3nnn[nH]3)CC2)cc(C(F)(F)F)c1 (centres unmarked) [Compound 297] | inactive à 10^−5 M | 7.70 | + (+: inhibition comprised between 20 and 50%)
FC(F)(F)c1cc(COC[C@H](c2ccccc2)N2CCN(CCCCc3nnn[nH]3)CC2)cc(C(F)(F)F)c1 [Compound 298, (S)-1-[2-(3,5-Bis-trifluoromethyl-benzyloxy)-1-phenyl-ethyl]-4-[4-(1H-tetrazol-5-yl)-butyl]-piperazine] | inactive à 10^−5 M | 7.80 | + (+: inhibition comprised between 20 and 50%)
FC(F)(F)c1cc(COC[C@@H](c2ccccc2)N2CCN(CCCCc3nnn[nH]3)CC2)cc(C(F)(F)F)c1 [Compound 299] | inactive à 10^−5 M | 7.80 | + (+: inhibition comprised between 20 and 50%)
FC(F)(F)c1cc(COCC(c2ccccc2)N2CCN(CCOCc3nnn[nH]3)CC2)cc(C(F)(F)F)c1 (centres unmarked) [Compound 300] | inactive à 10^−5 M | 7.50 | + (+: inhibition comprised between 20 and 50%)
